Here are results for four compounds from patent US7172907B2, “Cyanine dye labelling reagents with meso-substitution” (GE Healthcare Bio-Sciences Corp., priority 2003, dated 2007).

For series [1] the following is noted: background values for known Cy dyes, X = Y = C(CH3)2; cited from earlier work.
Series [2] in a line: Photostability: ethanolic solution left in the room light, fading of the dyes. The series is classed as physicochemical.
Series [3] in a line: Hydrolytic stability in de-ionized water, fading of the dyes. The series is classed as physicochemical.
The nature of series [4]: Absorption and emission spectra of meso-cyano Cy5 in MeOH. It counts as physicochemical. How it is done:
(§1) 2-{N-Acetyl-N-phenyl}aminoethenyl-1,3,3-trimethylindoleriine and 2-{N-acetyl-N-phenyl}aminoethenyl-1-{6-carboxypentyl}-3,3-trimethylindolenine (20 mmoles of each) and 10 equivalents of cyanoacetic acid in pyridine (100 ml) were heated under reflux under Argon for 4 hours. At the end of the reaction, the pyridine was evaporated and the product purified by repeated HPLC purification followed by silica gel column chromatography with increasing amounts of MeOH in ethyl acetate as the eluant to give a pure product, 2-{5-[1-(5-carboxypentyl)-3,3-dimethyl-1,3-dihydro-2H-indol-2-ylidene]-3-cyano-1,3-pentadienyl}-1,3,3-trimethyl-3H-indolinium (meso-cyano Cy5). Absorption maximum (MeOH): 610 nm: Emission maximum (MeOH): 628 nm; Quantum yield: 0.65 that of Cy5.

The nature of series [5]: Fluorescence quantum yield relative to Cy5. The series is classed as physicochemical. To be noted: expressed as fraction of that of Cy5. How it is done:
as §1

Consider Cy5.5, for which, in series [1], the Abs max is 675 nm and the Em max is 694 nm.
In the case of `CCN1/C(=C/C=C/C=C/C2=[N+](CCCCCC(=O)O)c3ccc(S(=O)(=O)O)cc3C2(C)C)C(C)(C)c2cc(S(=O)(=O)[O-])ccc21` [Cy5], the “Photostability: half-life (t1/2) for fading of the dyes” value in series [2] came out at 22 h. The “Hydrolytic stability: half-life (t1/2) for fading of the dyes” value in series [3] (pH=6.85) amounted to 56 h. In series [1], the Abs max is 649 nm and the Em max is on record as 670 nm.
`CN1/C(=C/C=C(C#N)/C=C/C2=[N+](CCCCCC(=O)O)c3ccccc3C2(C)C)C(C)(C)c2ccccc21` [meso-cyano Cy5, 2-{5-[1-(5-Carboxypentyl)-3,3-dimethyl-1,3-dihydro-2H-indol-2-ylidene]-3-cyano-1,3-pentadienyl}-1,3,3-trimethyl-3H-indolinium] showed an Absorption maximum in series [4] of 610 nm. The Emission maximum in series [4] amounted to 628 nm. Further, the Quantum yield in series [5] turned out to be 0.65. Also, the half-life was more than 75 h in series [2] (read-out: Photostability: half-life (t1/2) for fading of the dyes) and more than 150 h in series [3] (pH=6.85, read-out: Hydrolytic stability: half-life (t1/2) for fading of the dyes).
Regarding `CCN1C(=CC=CC2=[N+](CCCCCC(=O)O)c3ccc(S(=O)(=O)O)cc3C2(C)C)C(C)(C)c2cc(S(=O)(=O)[O-])ccc21` [Cy3], in series [1], the Abs max is 550 nm and the Em max was 570 nm.
